In one data set the test system is ApoE knockout mice. Briefly: Serum lipids in hyperlipidemia ApoE knockout mice on high fat diet. It is filed as in vivo. The note with it: positive control 3 mg/kg/day intragastric, 4 weeks, vs model group. On the procedure: Fifteen C57BL/6J mice (male, 6-8 weeks) and seventy-five ApoE knockout mice (male, 6-8 weeks) were used for experiments. C57BL/6J mice were fed with normal diet, and ApoE knockout mice were fed for 1 week with a diet of normal/high fat diet ratio of 1/1.
Mice were weighed before administered drugs every week, where the dosage of the drug for mice is calculate according to the weight; and housed under 24±1° C. room temperature and 55±5% air humidity condition, and allowed enough food and water ad libitum. After the drug administration continuously for 4 weeks, the mice were anesthetized with pentobarbital sodium according to body weight. Blood (0.5 ml per mouse) was drawn from the inner canthus vein for hematology analysis. Hematology analysis: blood samples were let for standing for 2 h and centrifuged (3000 rpm, 10 min, 4° C.) to obtain serum. The total cholesterol (TC), triacylglycerol (TG) and low-density cholesterol (LDL-C) levels in the serum samples were assessed using automatic biochemical analyzer. Statistical analysis: GraphPad Prism 5 software was used to analyze and draw figure. Results were expressed as the mean±standard (mean±SD), and statistical analysis was performed by one-way analysis of variance (ANOVA) or student's t test. A difference with P<0.05 was considered statistically significant. Statistical significance was set at *P<0.05, **P<0.01, ***P<0.001 versus the model group.

In a further data set the test system is New Zealand white rabbit. Description: Serum lipids in hyperlipidemia New Zealand rabbits on high fat diet. It counts as in vivo. The note with it: positive control 2.5 mg/kg/day intragastric, 12 weeks, vs model group. On the procedure:
Forty-eight male New Zealand rabbits weighed 1.8 to 2.2 kg were housed under 12 h dark-12 h light cycles and allowed food and water ad libitum to adapt to the housing environment for one week, and then randomly divided into 6 groups: • 1) Control group (Normal diet, n=8); Administered intragastrically with ultrapure water; • 2) Model group (High fat diet, n=8); Administered intragastrically with ultrapure water; • 3) Leonurine crystal form A in low dose group (High fat diet, n=8); Administered intragastrically at a dose of 4 mg/kg/day; • 4) Leonurine crystal form A in middle dose group (High fat diet, n=8); Administered intragastrically at a dose of 8 mg/kg/day; • 5) Leonurine crystal form A in high dose group (High fat diet, n=8); […] Administered intragastrically at a dose of 2.5 mg/kg/day; Rabbits were weighed before administered drugs every week, where the dosage of the drug for rabbits is calculate according to the weight; and housed in an air-conditioned room under (24±1° C. room temperature and 55±5% air humidity) and allowed enough food and water ad libitum. After 12 weeks of administration, the rabbits were fasted for 12 h, and blood (2 ml) was drawn from the marginal ear vein for hematology analysis. Hematology analysis: blood samples were let for standing for 2 h and centrifuged (3000 rpm, 10 min, 4° C.) to obtain serum. The serum samples were tested according to the protocols recommended by Nanjing Jiancheng Bioengineering Institute. The total cholesterol (TC), triacylglycerol (TG), low-density cholesterol (LDL-C) and […] (HDL-C) levels in the serum samples were assessed using automatic microplate reader and automatic biochemical analyzer. Statistical analysis: GraphPad Prism 5 software was used to analyze and draw figure. Results were expressed as the mean±standard (mean±SD), and statistical analysis was performed by one-way analysis of variance (ANOVA) or student's t test. A difference with P<0.05 was considered statistically significant. Statistical significance was set at *P<0.05, **P<0.01, ***P<0.001 versus the model group.

The nature of data set [1]: Hygroscopicity, dynamic vapor sorption (DVS), 0-95% RH. It is filed as physicochemical. Conditions: for change of crystal form / hygroscopicity (in words): range of 0-95% relative humidity. On the procedure: Dynamic vapor sorption (DVS) method, instrument model: SMS DVS Intrinsic, 0˜95% RH, temperature: 25° C.; FTIR method, instrument model: Nicolet 6700, sectral range: 4000˜400 cm^−1, resolution ratio: 4 cm^−1, scanning times: 32, the infrared spectra of the samples were determined by KBr pressed-disk technique method, temperature: 25° C.;
In this invention, it is named as leonurine crystal form A, which is monohydrate crystal form, square block crystal (as shown in FIG. 13), no crystal transformation before melting, dehydrates at 120˜150° C. and transform into anhydrous crystal form B, and decomposes at about 250° C. […] Under the condition of, in the suspension experiment at 25° C., in methanol, ethanol, isopropanol, acetone, acetonitrile, tetrahydrofuran, nitromethane, ethyl acetate, isopropyl acetate, isoamyl alcohol, methyl tert-butyl ether, toluene, methyl isobutyl ketone, n-hexane, n-heptane, ether, dichloromethane, chloroform, petroleum ether, water and other solvents; and under the condition of, in the suspension experiment at 50° C., in methanol, ethanol, acetone, methyl ethyl ketone, isopropyl acetate, methyl tert-butyl ether, toluene, n-hexane, n-heptane, diethyl ether, chloroform, petroleum ether, water and other solvents; and under most solvent conditions in suspension and volatilization of mixed solvents at 25° C. and 50° C., form A can be obtained. […] In a range of 0˜95% RH, the dehydration and water absorption behavior of the crystal form is very weak.

The nature of data set [2]: Accelerated stability test of leonurine crystal forms. It is filed as physicochemical. The note with it: 40° C.; for Crystal stability: 70% RH, 10 days. An excerpt:
In the invention, the dominant medicinal crystal form was also screened by the accelerated stability experimental method, and observed the transformation among the various crystal forms.

Where [3] appears, read: relative humidity 60%-80%, 10-day stability test.

The structures appear in SMILES notation.

In the case of `CC(C)c1c(C(=O)Nc2ccccc2)c(-c2ccccc2)c(-c2ccc(F)cc2)n1CC[C@@H](O)C[C@@H](O)CC(=O)O` [Atorvastatin, reference compound], in the data set on ApoE knockout mice, the “serum total cholesterol (TC)” value was “reduced” and the “serum triacylglycerol (TG)” value is “reduced”. Moreover, in the data set with New Zealand white rabbit, the “serum total cholesterol (TC)” value is recorded as “no significant difference” and the “serum triacylglycerol (TG)” value is recorded as “reduced”.

Regarding `COc1cc(C(=O)OCCCCNC(=N)N)cc(OC)c1O` [crystal form B, 4-guanidino-1-butyl 4-hydroxy-3,5-dimethoxybenzoate], the “hygroscopicity, water absorption” value in data set [1] (60% RH) is recorded as 60% RH, water absorption 0.14%; in data set [1] (80% RH), 80% RH, water absorption 0.30%. Further, the “change of crystal form” value in data set [1] was “changed into crystal form A”. Moreover, the “hygroscopicity (in words)” value in data set [1] is listed as “slightly hygroscopicity”. In addition, the Crystal stability result is reported as “transformed into crystal form A” in data set [2] and “form into A” in data set [2] (listed as B). Moreover, the crystal transformation behavior entry in data set [2] (setting [3]) is listed as “appeared crystal transformation”.

For `COc1cc(C(=O)OCCCCNC(=N)N)cc(OC)c1O` [crystal form C, 4-guanidino-1-butyl 4-hydroxy-3,5-dimethoxybenzoate], the “hygroscopicity, water absorption” value in data set [1] (60% RH) was 60% RH, water absorption 0.56%; in data set [1] (80% RH), 80% RH, water absorption 1.05%. In data set [1], the “change of crystal form” value is “changed into crystal form A”. In addition, the Crystal stability entry in data set [2] is listed as “transformed into crystal form A”; in data set [2] (listed as C) it was “form into A”. Moreover, the crystal transformation behavior result in data set [2] (setting [3]) is “appeared crystal transformation”.

With `COc1cc(C(=O)OCCCCNC(=N)N)cc(OC)c1O` [crystal form D, 4-guanidino-1-butyl 4-hydroxy-3,5-dimethoxybenzoate], the “hygroscopicity, water absorption” value in data set [1] (60% RH) is 60% RH, water absorption 1.63%; in data set [1] (80% RH) it was 80% RH, water absorption 0.98%. Further, in data set [1], the “change of crystal form” value was “changed into crystal form A”. Also, the results for the Crystal stability result in data set [2] and in data set [2] (listed as D) were “transformed into crystal form A” and “form into A”, respectively. Moreover, the crystal transformation behavior result in data set [2] (setting [3]) is recorded as “appeared crystal transformation”.

For `COc1cc(C(=O)OCCCCNC(=N)N)cc(OC)c1O` [crystal form E, 4-guanidino-1-butyl 4-hydroxy-3,5-dimethoxybenzoate], the “hygroscopicity, water absorption” value in data set [1] (60% RH) was 60% RH, water absorption 0.07%. In addition, the “hygroscopicity, water absorption” value in data set [1] (80% RH) was 80% RH, water absorption 0.12%. Also, in data set [1], the “change of crystal form” value was “didn't change” and the “hygroscopicity (in words)” value is given as “slight hygroscopicity”. Moreover, in data set [2], the Crystal stability result is on record as “remain unchanged”. Moreover, the Crystal stability result in data set [2] (listed as E) is given as “stable”. In data set [2] (setting [3]), the crystal transformation behavior entry is reported as “did not appear crystal transformation”, the “hygroscopicity (in words)” value was “strong” and the “hygroscopicity relative to crystal form A” value is reported as “about ten times”.

On to `COc1cc(C(=O)OCCCCNC(=N)N)cc(OC)c1O` [crystal form F, 4-guanidino-1-butyl 4-hydroxy-3,5-dimethoxybenzoate], for which the “hygroscopicity, water absorption” value was 60% RH, water absorption 0.14% in data set [1] (60% RH) and 80% RH, water absorption 0.30% in data set [1] (80% RH). For the same molecule, in data set [1], the “change of crystal form” value is recorded as “changes into crystal form A”. Also, the “hygroscopicity (in words)” value in data set [1] is on record as “slightly hygroscopicity”. Moreover, the figures for the Crystal stability result in data set [2] (listed as F) and in data set [2] (listed as form F) were “form into A” and “transformed into crystal form A”, respectively. Besides, the crystal transformation behavior result in data set [2] (setting [3]) was “appeared crystal transformation”.

The values above are taken from patent US11446270B2, “Leonurine crystal and use thereof in preparation of insulin sensitizer, hypoglycemic drug and lipid-lowering drug” (ZHUHAI HENGQIN NEW DISTRICT ZHONGZHU ZHENGTAI MEDICAL …, priority 2017, dated 2022).
